Assay [1] has as its system SMN protein in SMA patient fibroblast cells (GM03813). Description: SMN protein assay in cultured cells (SMN HTRF). It is filed as cell-based. The conditions noted are these: Homo sapiens, SMA Type 1 patient fibroblasts, 48 hours; for EC (1.5-fold): 7-point concentration curve, 1.5 times SMN protein vs vehicle, read-out: EC1.5x SMN protein (EC1.5x concentration for SMN protein expression); for maximal fold induction: fold increase relative to vehicle control, read-out: max. fold increase of SMN protein. Put shortly:
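SMA patient fibroblasts (5,000/well, DMEM-10% FBS) treated 48 h at 37° C with 7-point, 3.16-fold dilution series, in triplicate; lysates read by anti-SMN HTRF (665/620 nm ratio). Fold SMN over vehicle derived from blank-corrected ΔF; EC1.5x is the concentration giving 1.5-fold SMN versus vehicle.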

Assay [2] deals with full length SMN2 minigene mRNA (HEK293H cells stably transfected with SMN2-A minigene). Description: SMN2 minigene mRNA splicing RT-qPCR assay in cultured cells. It is filed as cell-based. To be noted: Homo sapiens, HEK293-H, 24 hours, 7-point concentration curve, 1.5-fold increase relative to vehicle, read-out: EC1.5x minigene (EC1.5x concentration for production of full length SMN2 minigene mRNA). In general terms: Real-time PCR tracks product formation cycle by cycle.

`Cc1cn2nc(-c3cc(=O)n4cc(N5CCNC6(CC6)C5)cc(C)c4n3)ccc2n1` [Example 37, 7-(4,7-diazaspiro[2.5]octan-7-yl)-9-methyl-2-(2-methylimidazo[1,2-b]pyridazin-6-yl)pyrido[1,2-a]pyrimidin-4-one]: the EC (1.5-fold) is 0.045 µM in assay [1] and 0.0044 µM in assay [2]. In addition, in assay [1], the maximal fold induction is 1.87.

For `Cc1cn2nc(-c3cc(=O)n4cc(N5C[C@H](C)N[C@@H](C)C5)cc(C)c4n3)ccc2n1` [Example 38, 7-[(3S,5S)-3,5-dimethylpiperazin-1-yl]-9-methyl-2-(2-methylimidazo[1,2-b]pyridazin-6-yl)pyrido[1,2-a]pyrimidin-4-one], in assay [1], the EC (1.5-fold) is 0.0031 µM and the maximal fold induction came out at 1.85. The EC (1.5-fold) in assay [2] was found to be 0.0003 µM.

On to `CC[C@@H]1CN(c2ccc3nc(-c4ccc5nc(C)cn5n4)cc(=O)n3c2)CCN1` [Example 39, 7-[(3R)-3-ethylpiperazin-1-yl]-2-(2-methylimidazo[1,2-b]pyridazin-6-yl)pyrido[1,2-a]pyrimidin-4-one], for which the EC (1.5-fold) in assay [1] came to 0.0158 µM; in assay [2], 0.0009 µM. Further, in assay [1], the maximal fold induction stood at 1.81.

Source of the values: patent US11827646B2, “Compounds for treating spinal muscular atrophy” (Hoffmann-La Roche Inc., priority 2014, dated 2023).
